How the values were obtained:
[1] = tested on: NSC34 cells (mouse motor neuron) expressing TDP-43^A315T; assay: WST cell viability assay, NSC34 cells transfected with TDP-43^A315T; assay type: cell-based; conditions: for Viability (TDP-43^A315T): ratio of maximum viability to viability at 0 μM
Protocol: (§1) A pathological cell model was created by transient forced expression of the following genes in NSC34 cells (mouse motor neuron) by transfecting the cells with a plasmid using Lipofectamine 2000 (R) (Thermo Fisher Scientific), and changes in cell viability due to drug administration were analyzed by WST assay.
(§2) • Day 0: NSC 34 cell culture (DMEM FBS 10%) • Day 1: Transfection (Cells were transfected with a plasmid having the following genes inserted by using Lipofectamine 2000 (R) (Thermo Fisher Scientific).) • 1. Mock (unmutated cells: control plasmid-transfected cells) • 2. TDP-43^A315T: TDP-43 mutation model (reflecting human pathological conditions) • 3. SOD1^G93A: mutation SOD1 familial model (mutation common to humans and animal models) • Cell culture is continued afterward in FBS-free DMEM. • Day 4: Drug administration • Day 5: WST assay (Cell viability is measured to determine the effect of drug administration.)
(§3) Two types of cellular models were used to bridge the gap between SOD1 transgenic mouse models and sporadic ALS human pathological conditions (TDP-43 cell model).
(§4) The viability indicates the ratio of maximum viability to viability at 0 μM. The […] PF-04457845 yielded a viability about 1.3 times the viability with the existing drug riluzole (control) at a concentration one-tenth the concentration of riluzole.

[2] = tested on: NSC34 cells (mouse motor neuron) expressing SOD1^G93A; assay: WST cell viability assay, NSC34 cells transfected with SOD1^G93A; assay type: cell-based; conditions: for Viability (SOD1^G93A): ratio of maximum viability to viability at 0 μM
Protocol: as §1, §2, §3, §4

NSC34 cells = assay: WST cell viability assay, NSC34 ALS model cells (model not given); assay type: cell-based, mouse
Protocol: as §1, §2
The experimental conditions are those described in FIG. 3.

[3] = tested on: SOD1^G93A transgenic mice; assay: Survival analysis in SOD1^G93A transgenic mice; assay type: in vivo, mouse; conditions: 1 mg/kg/day mixed in diet from 8 weeks of age, vs control diet; log rank test p<0.001
Protocol: (§5) PF-04457845 was mixed in the diet, and administration started at 8 weeks of age. […] Drug efficacy analysis was conducted using body weight, motion analysis based on the Rotarod test (measured once a week), and survival analysis.
An ALS model animal with mutation of SOD1 gene, which is responsible for familial ALS, was used to conduct efficacy analysis of PF-04457845. The control was one that was free of the drug.
(§6) • Week 0: • Week 6: 1. Body weight, 2. Rotarod test (the method for measuring the motor function of mice) • Week 8: The drug (PF-04457845) was mixed with the diet, and administration started. • Week 9-10: Onset • Around week 17-20: Survival analysis
(§7) PF-04457845 was administered at a dose of 1 mg/kg/day. The dosage was determined based on a previous report on administration to rats (Ahn K et al. Journal of Pharmacology and Experimental Therapeutics 2011: 338; 114-124).
In accordance with the method shown in FIG. 6, survival analysis was performed. • ♂ (male), PF-04457845: n=8, Control: […] • ♀ (female), PF-04457845: n=8, Control: n=13 • Log rank test p<0.001

[4] = Body weight of SOD1^G93A transgenic mice; assay type: in vivo, mouse; conditions: 1 mg/kg/day in diet, vs control diet; 2-way ANOVA; trend toward limiting weight loss
Protocol: as §5, §6, §7

[5] = tested on: SOD1^G93A transgenic mice; assay: Rotarod test (motion analysis) in SOD1^G93A transgenic mice; assay type: in vivo, mouse; conditions: 1 mg/kg/day in diet, vs control diet; 2-way ANOVA, p=0.002
Protocol: as §5, §6, §7

[6] = tested on: mouse spinal cord motor neurons; assay: Spinal cord ChAT staining (motor neurons) in SOD1^G93A transgenic mice; assay type: in vivo
Protocol: as §5
In accordance with the method shown in FIG. 6, the drug was administered, and the pathological specimens of mouse spinal cords in an advanced stage of the disease were subjected to ChAT staining (motor neuron).
19W and 22W PF-04457845-administered mouse spinal cords were compared with a 19W control-administered mouse spinal cord.
The photographs are of a 22W PF-04457845-administered mouse spinal cord and a 19W control-administered mouse spinal cord.
(§8) A 16W PF-04457845-administered mouse spinal cord was compared with a 16W control-administered mouse spinal cord.
The photographs are of the 16W PF-04457845-administered mouse spinal cord and 16W control-administered mouse spinal cord.

astrocytes = assay: Spinal cord GFAP staining in SOD1^G93A transgenic mice; assay type: in vivo; conditions: 16W treated vs 16W control mouse spinal cord
Protocol: as §5, §8

microglia = assay: Spinal cord Iba-1 staining in SOD1^G93A transgenic mice; assay type: in vivo; conditions: 16W treated vs 16W control mouse spinal cord
Protocol: as §5, §8

mouse spinal cords = assay: Mouse spinal cord RNA sequencing (GO and IPA analysis) in SOD1^G93A transgenic mice; assay type: in vivo; conditions: 16 weeks of age, drug diet vs control diet
Protocol: The experiment of PF-04457845 administration to SOD1^G93A transgenic mice was continued, and RNA sequencing of the spinal cord was performed on mice treated with a drug-infused diet and mice treated with a control diet, both at 16 weeks of age.
GO analysis: This is a method for analyzing a group of genes that have many variable genes when genes are grouped according to their functionality among mRNAs whose RNA sequences show changes.
IPA analysis: An analysis to explore the association of known pathways, upstream factors, and toxicity with disease.

Row | SMILES | Improving cell viability, TDP-43 mutation (A315T) cell model ([1]; 10 nM) | Viability (TDP-43^A315T) ([1]; concentration 10 nM) | Improving cell viability, SOD1 (G93A) mutation cell model ([2]; 10 nM) | Viability (SOD1^G93A) ([2]; concentration 10 nM) | Viability relative to the viability with riluzole (control) (NSC34 cells; at a concentration one-tenth the concentration of riluzole) | Improving effect on cell viability compared with other FAAH inhibitors (NSC34 cells; vs PF-3845, arachidonoyl serotonin, FAAH inhibitor II, conditions of FIG. 3) | Survival period [3] | Body weight [4] | Rotarod test (motor function) [5] | ChAT-positive motor neuron count in spinal cord ([6]; 16W treated mice vs 16W control mice) | ChAT-positive motor neuron count in spinal cord ([6]; 19W and 22W treated mice vs 19W control mice, advanced stage) | GFAP staining: proliferation of astrocytes (astrocytes) | Iba-1 staining: proliferation of microglia (microglia) | Expression of CD36 in mouse spinal cords (mouse spinal cords) | Expression of Pla2g3 in mouse spinal cords (mouse spinal cords) | Expression of lipoprotein lipase (Lpl) in mouse spinal cords (mouse spinal cords) | IL-13 signaling pathway (IPA analysis) (mouse spinal cords) | Viability (TDP-43^A315T) ([1]; concentration 0.1 μM) | Viability (SOD1^G93A) ([2]; concentration 0.1 μM)
1 | O=C(Nc1cccnn1)N1CCC(=Cc2cccc(Oc3ccc(C(F)(F)F)cn3)c2)CC1 [PF-04457845, N-pyridazin-3-yl-4-(3-{[5-(trifluoromethyl)pyridin-2-yl]oxy}benzylidene) piperidine-1-carboxamide] | highly effective in improving the cell viability | 1.31 | highly effective in improving the cell viability | 1.26 | about 1.3 times | more effective in improving cell viability | effect of prolonging the survival period was observed | no significant difference in body weight | significant progression-inhibiting effect | effect of limiting the decrease in motor neuron count | effect of limiting the decrease in motor neuron count | effect of inhibiting the proliferation of astrocytes | effect of inhibiting the proliferation of microglia | increased | decreased | increased | activation of IL-13 signaling pathway | – | –
2 | Nc1nc2ccc(OC(F)(F)F)cc2s1 [Riluzole, riluzole] | – | – | – | – | – | – | – | – | – | – | – | – | – | – | – | – | – | 1.03 | 1.00

Source: US20240207262A1, “PROPHYLACTIC AND/OR THERAPEUTIC AGENT FOR AMYOTROPHIC LATERAL SCLEROSIS” (NATIONAL UNIVERSITY CORPORATION TOKAI NATIONAL HIGHER …, priority 2021, published 2024)
